From US10597388B2, “Pyridazinone herbicides” (FMC CORPORATION, priority 2014, dated 2020)

What was measured:
Format in all cases: in vivo
[1] = test system: barnyardgrass (Echinochloa crus-galli); assay: Test A greenhouse herbicide test, pre- and postemergence
Outline: (§1)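 Visual injury ratings, 0 (no effect) to 100 (complete control), versus untreated plants after roughly 10 d in a greenhouse. Compounds, formulated in a surfactant-containing non-phytotoxic solvent, were sprayed on loam–sand soil after sowing (pre) or on one- to two-leaf plants 2–10 cm tall (post).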

corn (Zea mays) = assay: as above; details: Postemergence; for Corn plant response rating: 0 to 100 scale, 0 is no effect, 100 is complete control
Outline: as §1

[2] = test system: foxtail, giant (giant foxtail, Setaria faberii); assay: as above
Outline: as §1

kochia (Kochia scoparia) [3] = assay: as above
Outline: as §1

[4] = test system: pigweed (Amaranthus retroflexus); assay: as above
Outline: as §1

[5] = test system: ragweed (common ragweed, Ambrosia elatior); assay: as above
Outline: as §1

[6] = test system: ryegrass, Italian (Italian ryegrass, Lolium multiflorum); assay: as above
Outline: as §1

[7] = test system: wheat (Triticum aestivum); assay: as above; details: Postemergence; for Wheat plant response rating: 0 to 100 scale, 0 is no effect, 100 is complete control
Outline: as §1

[8] = test system: blackgrass (Alopecurus myosuroides); assay: Test A greenhouse herbicide test, postemergence; details: for Blackgrass plant response rating: 0 to 100 scale, 0 is no effect, 100 is complete control
Outline: (§2)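 Scores are visual injury ratings from 0 (no effect) to 100 (complete control) versus untreated plants, taken roughly 10 d after treatment in the greenhouse. Treatment was postemergence, on one- to two-leaf plants 2–10 cm high growing in a loam soil/sand mix.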

[9] = test system: galium (catchweed bedstraw, Galium aparine); assay: Test A greenhouse herbicide test, postemergence; details: for Galium plant response rating: 0 to 100 scale, 0 is no effect, 100 is complete control
Outline: as §2

kochia (Kochia scoparia) [10] = assay: Test C greenhouse herbicide test, postemergence
Outline: (§3)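 Seedlings are raised in pots of peat moss–vermiculite medium with starter nutrients, then receive postemergence test chemical at the 1- to 4-leaf stage. They are kept in the greenhouse 13 to 15 d and scored visually versus controls, 0 meaning no effect and 100 complete control.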

[11] = test system: oat, wild (wild oat, Avena fatua); assay: Test C greenhouse herbicide test, postemergence
Outline: as §3

[12] = Postemergence, 125 g ai/ha, 0 to 100 scale where 0 is no effect and 100 is complete control
[13] = Postemergence, 500 g ai/ha, visual rating after approx. 10 d, 0 to 100 scale (0 no effect, 100 complete control)
[14] = Preemergence, 125 g ai/ha, 0 to 100 scale where 0 is no effect and 100 is complete control
[15] = Preemergence, 500 g ai/ha, 0 to 100 scale where 0 is no effect and 100 is complete control
[16] = 125 g ai/ha, 0 to 100 scale where 0 is no effect and 100 is complete control
[17] = 500 g ai/ha, visual rating after approx. 10 d, 0 to 100 scale (0 no effect, 100 complete control)
[18] = Postemergence, 31 g ai/ha, scale 0 to 100 (0 no effect, 100 complete control)
[19] = Postemergence, 62 g ai/ha, 0 to 100 scale (0 no effect, 100 complete control)
[20] = Postemergence, 250 g ai/ha, scale 0 to 100, 0 no effect, 100 complete control, 13 to 15 d
[21] = postemergence, 125 g ai/ha, scale 0 to 100, 0 no effect, 100 complete control
[22] = Postemergence, 500 g ai/ha, 0 to 100 scale, 0 is no effect, 100 is complete control
[23] = Preemergence, 500 g ai/ha, 0 to 100 scale, 0 no effect, 100 complete control
[24] = Postemergence, 16 g ai/ha, scale 0 to 100 (0 no effect, 100 complete control)
[25] = Postemergence, 31 g ai/ha, 0 to 100 scale (0 no effect, 100 complete control)
[26] = Postemergence, 125 g ai/ha, scale 0 to 100, 0 is no effect, 100 is complete control
[27] = postemergence, 62 g ai/ha, scale 0 to 100, 0 no effect, 100 complete control

## Cc1nn(C)c(=O)c(-c2cccc3ccc(C#N)cc23)c1O [Compound 127]
[1]; [12]
  Plant response rating, Barnyardgrass: 10
[1]; [13]
  Plant response rating, Barnyardgrass: 50
[1]; [14]
  Barnyardgrass plant response rating: 10
[1]; [15]
  Plant response rating, Barnyardgrass: 40
Corn (Zea mays); [16]
  Plant response rating, Corn: 0
Corn (Zea mays); [17]
  Plant response rating, Corn: 10
[2]; [12]
  Plant response rating, Foxtail, Giant: 10
[2]; [13]
  Plant response rating, Foxtail, Giant: 60
[2]; [14]
  Foxtail, Giant plant response rating: 50
[2]; [15]
  Plant response rating, Foxtail, Giant: 60
Kochia (Kochia scoparia) [3]; [12]
  Plant response rating, Kochia: 70
Kochia (Kochia scoparia) [3]; [13]
  Plant response rating, Kochia: 80
Kochia (Kochia scoparia) [3]; [14]
  Kochia plant response rating: 0
Kochia (Kochia scoparia) [3]; [15]
  Plant response rating, Kochia: 90
[4]; [12]
  Plant response rating, Pigweed: 90
[4]; [13]
  Plant response rating, Pigweed: 100
[4]; [14]
  Pigweed plant response rating: 70
[4]; [15]
  Plant response rating, Pigweed: 100
[5]; [12]
  Plant response rating, Ragweed: 60
[5]; [13]
  Plant response rating, Ragweed: 80
[5]; [14]
  Ragweed plant response rating: 30
[5]; [15]
  Plant response rating, Ragweed: 70
[6]; [12]
  Plant response rating, Ryegrass, Italian: 80
[6]; [13]
  Plant response rating, Ryegrass, Italian: 90
[6]; [14]
  Ryegrass, Italian plant response rating: 60
[6]; [15]
  Plant response rating, Ryegrass, Italian: 90
[7]; [16]
  Plant response rating, Wheat: 0
[7]; [17]
  Plant response rating, Wheat: 20
[8]; [16]
  Plant response rating, Blackgrass: 20
[8]; [17]
  Plant response rating, Blackgrass: 50
[9]; [16]
  Plant response rating, Galium: 90
[9]; [17]
  Plant response rating, Galium: 100
Kochia (Kochia scoparia) [10]; [18]
  Plant response rating, Kochia: 40
Kochia (Kochia scoparia) [10]; [19]
  Kochia plant response rating: 85
Kochia (Kochia scoparia) [10]; [20]
  Plant response rating, Kochia: 90
Kochia (Kochia scoparia) [10]; [21]
  Kochia plant response rating: 95
[11]; [18]
  Plant response rating, Oat, Wild: 10
[11]; [19]
  Oat, Wild plant response rating: 20
[11]; [20]
  Plant response rating, Oat, Wild: 60
[11]; [21]
  Oat, Wild plant response rating: 55

## COc1ccc2ccccc2c1-c1c(O)c(C)nn(C)c1=O [Compound 40]
[1]; [12]
  Plant response rating, Barnyardgrass: 10
[1]; [22]
  Barnyardgrass plant response rating: 60
[1]; [14]
  Barnyardgrass plant response rating: 10
[1]; [23]
  Plant response rating, Barnyardgrass: 50
Corn (Zea mays); [16]
  Plant response rating, Corn: 0
Corn (Zea mays); 500 g ai/ha
  Corn plant response rating: 10
[2]; [12]
  Plant response rating, Foxtail, Giant: 60
[2]; [22]
  Foxtail, Giant plant response rating: 80
[2]; [14]
  Foxtail, Giant plant response rating: 40
[2]; [23]
  Plant response rating, Foxtail, Giant: 70
Kochia (Kochia scoparia) [3]; [12]
  Plant response rating, Kochia: 80
Kochia (Kochia scoparia) [3]; [22]
  Kochia plant response rating: 90
Kochia (Kochia scoparia) [3]; [14]
  Kochia plant response rating: 50
Kochia (Kochia scoparia) [3]; [23]
  Plant response rating, Kochia: 80
[4]; [12]
  Plant response rating, Pigweed: 80
[4]; [22]
  Pigweed plant response rating: 100
[4]; [14]
  Pigweed plant response rating: 90
[4]; [23]
  Plant response rating, Pigweed: 100
[5]; [12]
  Plant response rating, Ragweed: 70
[5]; [22]
  Ragweed plant response rating: 90
[5]; [14]
  Ragweed plant response rating: 30
[5]; [23]
  Plant response rating, Ragweed: 80
[6]; [12]
  Plant response rating, Ryegrass, Italian: 90
[6]; [22]
  Ryegrass, Italian plant response rating: 90
[6]; [14]
  Ryegrass, Italian plant response rating: 60
[6]; [23]
  Plant response rating, Ryegrass, Italian: 100
[7]; [16]
  Plant response rating, Wheat: 0
[7]; 500 g ai/ha
  Wheat plant response rating: 50
[8]; [16]
  Plant response rating, Blackgrass: 60
[8]; 500 g ai/ha
  Blackgrass plant response rating: 80
[9]; [16]
  Plant response rating, Galium: 90
[9]; 500 g ai/ha
  Galium plant response rating: 100
Kochia (Kochia scoparia) [10]; [24]
  Plant response rating, Kochia: 20
Kochia (Kochia scoparia) [10]; [25]
  Kochia plant response rating: 70
Kochia (Kochia scoparia) [10]; [26]
  Plant response rating, Kochia: 0
Kochia (Kochia scoparia) [10]; [27]
  Kochia plant response rating: 80
[11]; [24]
  Plant response rating, Oat, Wild: 5
[11]; [25]
  Oat, Wild plant response rating: 35
[11]; [26]
  Plant response rating, Oat, Wild: 60
[11]; [27]
  Oat, Wild plant response rating: 50

## Cc1cc(C)c2sc(C)c(-c3c(OC(=O)OC(C)C)c(C)nn(C)c3=O)c2c1 [Compound 67]
[1]; [12]
  Plant response rating, Barnyardgrass: 20
[1]; [22]
  Barnyardgrass plant response rating: 70
[1]; [14]
  Barnyardgrass plant response rating: 30
[1]; [23]
  Plant response rating, Barnyardgrass: 90
Corn (Zea mays); [16]
  Plant response rating, Corn: 0
Corn (Zea mays); 500 g ai/ha
  Corn plant response rating: 0
[2]; [12]
  Plant response rating, Foxtail, Giant: 80
[2]; [22]
  Foxtail, Giant plant response rating: 90
[2]; [14]
  Foxtail, Giant plant response rating: 80
[2]; [23]
  Plant response rating, Foxtail, Giant: 100
Kochia (Kochia scoparia) [3]; [12]
  Plant response rating, Kochia: 20
Kochia (Kochia scoparia) [3]; [22]
  Kochia plant response rating: 30
Kochia (Kochia scoparia) [3]; [14]
  Kochia plant response rating: 20
Kochia (Kochia scoparia) [3]; [23]
  Plant response rating, Kochia: 20
[4]; [12]
  Plant response rating, Pigweed: 20
[4]; [22]
  Pigweed plant response rating: 20
[4]; [14]
  Pigweed plant response rating: 90
[4]; [23]
  Plant response rating, Pigweed: 100
[5]; [12]
  Plant response rating, Ragweed: 50
[5]; [22]
  Ragweed plant response rating: 70
[5]; [14]
  Ragweed plant response rating: 80
[5]; [23]
  Plant response rating, Ragweed: 80
[6]; [12]
  Plant response rating, Ryegrass, Italian: 70
[6]; [22]
  Ryegrass, Italian plant response rating: 90
[6]; [14]
  Ryegrass, Italian plant response rating: 90
[6]; [23]
  Plant response rating, Ryegrass, Italian: 100
[7]; [16]
  Plant response rating, Wheat: 0
[7]; 500 g ai/ha
  Wheat plant response rating: 0
[8]; [16]
  Plant response rating, Blackgrass: 70
[8]; 500 g ai/ha
  Blackgrass plant response rating: 80
[9]; [16]
  Plant response rating, Galium: 80
[9]; 500 g ai/ha
  Galium plant response rating: 90
Kochia (Kochia scoparia) [10]; [25]
  Kochia plant response rating: 0
Kochia (Kochia scoparia) [10]; [26]
  Plant response rating, Kochia: 35
Kochia (Kochia scoparia) [10]; [20]
  Plant response rating, Kochia: 80
Kochia (Kochia scoparia) [10]; [27]
  Kochia plant response rating: 30
[11]; [25]
  Oat, Wild plant response rating: 80
[11]; [26]
  Plant response rating, Oat, Wild: 90
[11]; [20]
  Plant response rating, Oat, Wild: 100
[11]; [27]
  Oat, Wild plant response rating: 85
